In patent publication US7495104B2, “Quinoline or quinazoline derivatives inhibiting auto-phosphorylation of fibroblast growth factor receptors” (Kirin Beer Kabushiki Kaisha, priority 2001, dated 2009) one finds IC50 data, which are given here for 31 compounds.

Counter-ions that a name gives are not always drawn. Bounds are passed on as bounds.

The target of the assay is Bek (Homo sapiens, UniProt P21802). Briefly: Inhibitory activity against Bek-autophosphorylation using ELISA method in OCUM-2MD3 cells. In kind it is cell-based. As to conditions: 1 hr with compound, read-out: IC50 (concentration necessary for inhibiting 50% of Bek-phosphorylation). The gist of the method: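 Sandwich ELISA (anti-phosphotyrosine capture, anti-Bek detection, peroxidase, 450 nm) measured Bek autophosphorylation in OCUM-2MD3 lysates after 1 hr compound treatment at 37° C in 0.1% serum medium. IC50 derived by scaling between no-drug (100%) and excess positive control at 1000 nM (0%).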
Chain of Bek (P21802 431-767 limits assumed): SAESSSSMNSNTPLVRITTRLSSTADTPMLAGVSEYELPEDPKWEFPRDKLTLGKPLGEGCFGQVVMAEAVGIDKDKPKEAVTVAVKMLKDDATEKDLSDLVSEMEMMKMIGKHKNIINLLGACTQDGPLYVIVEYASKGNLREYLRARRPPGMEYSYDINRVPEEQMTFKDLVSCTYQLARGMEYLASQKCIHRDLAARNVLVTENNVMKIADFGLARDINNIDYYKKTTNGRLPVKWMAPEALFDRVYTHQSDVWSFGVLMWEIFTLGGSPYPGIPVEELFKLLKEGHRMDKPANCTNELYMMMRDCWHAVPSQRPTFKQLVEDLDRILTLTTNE
(In general: An ELISA detects its analyte on a solid surface through an enzyme-linked reagent.)
For the compound `COc1cc2c(Oc3ccc(NC(=O)NCCC(C)(C)C)c(Cl)c3)ccnc2cc1OC[C@H](O)CN1CCOCC1` [Compound 201, 1-{2-Chloro-4-[7-(2-hydroxy-3-morpholin-4-yl-propoxy)-6-methoxy-quinolin-4-yloxy]-phenyl}-3-(3,3-dimethyl-butyl)-urea], the IC50 is below 0.01 µM.

Turning to `CCN(CCO)CCOc1cc2nccc(Oc3ccc(NC(=O)NCCC(C)(C)C)cc3)c2cc1OC` [Compound 340, 1-(3,3-Dimethyl-butyl)-3-[4-(7-{2-[ethyl-(2-hydroxy-ethyl)-amino]-ethoxy}-6-methoxy-quinolin-4-yloxy)-phenyl]-urea], the IC50 worked out at 0.0183 µM.

Regarding `COc1cc2nccc(Oc3ccc(NC(=O)NCCC(C)(C)C)c(Cl)c3)c2cc1OC` [Compound 103, 1-[2-Chloro-4-(6,7-dimethoxyquinolin-4-yloxy)-phenyl]-3-(3,3-dimethyl-butyl)-urea], the IC50 was found to be 0.0298 µM.

With `COc1cc2nccc(Oc3ccc(Cc4ccc(C(C)(C)C)cc4)cc3)c2cc1OC` [Compound 32, 4-[4-(4-Tert-butylbenzyl)phenoxy]-6,7-dimethoxyquinoline], the IC50 was 0.693 µM.

As to `COc1cc2c(Oc3ccc(NC(=O)NCCC(C)(C)C)cc3)ccnc2cc1OCCCN1CCC(N2CCCC2)CC1` [Compound 249, 1-(3,3-Dimethyl-butyl)-3-(4-{6-methoxy-7-[3-(4-pyrrolidin-1-yl-piperidin-1-yl)-propoxy]-quinolin-4-yloxy}-phenyl)-urea], the IC50 is below 0.01 µM.

As to `COc1cc2c(Oc3ccc(NC(=O)NCCC(C)(C)C)cc3Cl)ccnc2cc1OCCN1CCC(CO)CC1` [Compound 312, 1-(3-Chloro-4-{7-[2-(4-hydroxymethyl-piperidin-1-yl)-ethoxy]-6-methoxy-quinolin-4-yloxy}-phenyl)-3-(3,3-dimethyl-butyl)-urea], the IC50 turned out to be 0.0205 µM.

Take `COc1cc2c(Oc3ccc(NC(=O)NCCC(C)(C)C)c(Cl)c3)ccnc2cc1OCCCN1CCCCC1` [Compound 180, 1-{2-Chloro-4-[6-methoxy-7-(3-piperidin-1-yl-propoxy)-quinolin-4-yloxy]-phenyl}-3-(3,3-dimethyl-butyl)-urea]: the IC50 stood at 0.0227 µM.

Regarding `COc1cc2c(Oc3ccc(Nc4ccc(C(C)(C)C)cc4)cc3)ccnc2cc1O` [Compound 21, 4-[4-(4-Tert-butylphenylamino)phenoxy]-6-methoxy-quinolin-7-ol], the IC50 was 0.328 µM.

For the compound `COc1cc2c(Oc3ccc(Nc4ccc(C(C)(C)C)cc4)cc3)ccnc2cc1OCCN(C)CCO` [Compound 348, 2-[(2-{4-[4-(4-Tert-butyl-phenylamino)-phenoxy]-6-methoxy-quinolin-7-yloxy}-ethyl)-methyl-amino]-ethanol hydrochloride], the IC50 worked out at 0.186 µM.

As for `COc1cc2c(Oc3ccc(Nc4ccc(C(C)(C)C)cc4)c(F)c3)ccnc2cc1OCCN1CCC(O)CC1` [Compound 287, 1-(2-{4-[4-(4-Tert-butyl-phenylamino)-3-fluoro-phenoxy]-6-methoxy-quinolin-7-yloxy}-ethyl)-piperidin-4-ol], the IC50 stood at 0.254 µM.

Consider `COc1cc2c(Oc3ccc(NC(=O)NCCC(C)(C)C)c(Cl)c3)ccnc2cc1OCCNCCO` [Compound 331, 1-(2-Chloro-4-{7-[2-(2-hydroxy-ethylamino)-ethoxy]-6-methoxy-quinolin-4-yloxy}-phenyl)-3-(3,3-dimethyl-butyl)-urea], for which the IC50 stood at 0.0301 µM.

With `COc1cc2nccc(Oc3ccc(NC(=O)NCCC(C)(C)CC(C)(C)C)c(F)c3)c2cc1OC` [Compound 149, 1-[4-(6,7-Dimethoxy-quinolin-4-yloxy)-2-fluoro-phenyl]-3-(3,3,5,5-tetramethyl-hexyl)-urea], the IC50 was determined as 0.218 µM.

For `COc1cc2c(Oc3ccc(Nc4ccc(C(C)(C)C)cc4)cc3)ccnc2cc1OCCN(CCO)CCO` [Compound 349, 2-[(2-{4-[4-(4-Tert-butyl-phenylamino)-phenoxy]-6-methoxy-quinolin-7-yloxy}-ethyl)-(2-hydroxy-ethyl)-amino]-ethanol hydrochloride], the IC50 was 0.0959 µM.

For the compound `COc1cc2c(Oc3ccc(Nc4ccc(C(C)(C)C)cc4)cc3)ccnc2cc1OCC(O)CN1CCCN(C)CC1` (stereo not shown) [Compound 65, 1-{4-[4-(4-Tert-butylphenylamino)phenoxy]-6-methoxyquinolin-7-yloxy}-3-(4-methyl-[1,4]diazepin-1-yl)propan-2-ol], the IC50 is 0.184 µM.

`COc1cc2c(Oc3ccc(NC(=O)NCCC(C)(C)C)cc3)ccnc2cc1OCCCN1C[C@@H](C)O[C@@H](C)C1` [Compound 200, 1-(3,3-Dimethyl-butyl)-3-(4-{7-[3-(2,6-dimethyl-morpholin-4-yl)-propoxy]-6-methoxy-quinolin-4-yloxy}-phenyl)-urea]: the IC50 is 0.0211 µM.

With `COc1cc2c(Oc3ccc(Nc4ccc(C(C)(C)C)cc4)c(F)c3)ccnc2cc1OCCCN1CCC(CO)CC1` [Compound 290, [1-(3-{4-[4-(4-Tert-butyl-phenylamino)-3-fluoro-phenoxy]-6-methoxy-quinolin-7-yloxy}-propyl)-piperidin-4-yl]-methanol], the IC50 turned out to be 0.233 µM.

`COc1cc2c(Oc3ccc(NC(=O)NCCC(C)(C)C)c(Cl)c3)ccnc2cc1OCCCCN1C(=O)c2ccccc2C1=O` [Compound 164, 1-(2-Chloro-4-{7-[4-(1,3-dioxo-1,3-dihydro-isoindol-2-yl)-butoxy]-6-methoxy-quinolin-4-yloxy}-phenyl)-3-(3,3-dimethyl-butyl)-urea]: the IC50 is 0.26 µM.

`COc1cc2c(Oc3ccc(NC(=O)NCCC(C)(C)C)c(Cl)c3)ccnc2cc1OCC1CCNCC1` [Compound 168, 1-{2-Chloro-4-[6-methoxy-7-(piperidin-4-ylmethoxy)-quinolin-4-yloxy]-phenyl}-3-(3,3-dimethyl-butyl)-urea]: the IC50 is 0.024 µM.

Consider `COc1cc2nccc(Oc3ccc(NC(=O)NC4CCCC(C)(C)C4)c(Cl)c3)c2cc1OC` (stereo not shown) [Compound 110, 1-[2-Chloro-4-(6,7-dimethoxy-quinolin-4-yloxy)-phenyl]-3-(3,3-dimethyl-cyclohexyl)-urea], for which the IC50 was below 0.01 µM.

For `COc1cc2nccc(Oc3cc(C)c(NC(=O)NCCC(C)(C)C)cc3C)c2cc1OC` [Compound 142, 1-[4-(6,7-Dimethoxy-quinolin-4-yloxy)-2,5-dimethyl-phenyl]-3-(3,3-dimethyl-butyl)-urea], the IC50 was determined as 0.265 µM.

On to `COc1cc2c(Oc3ccc(Nc4ccc(C(C)(C)C)cc4)cc3)ccnc2cc1OCC(O)CN(C)C` (stereo not shown) [Compound 67, 1-{4-[4-(4-Tert-butylphenylamino)phenoxy]-6-methoxyquinolin-7-yloxy}-3-dimethylaminopropan-2-ol], for which the IC50 is 0.189 µM.

Regarding `COc1cc2c(Oc3ccc(Nc4ccc(C(C)(C)C)cc4)c(Cl)c3)ccnc2cc1OCCN1CCC(CO)CC1` [Compound 279, [1-(2-{4-[4-(4-Tert-butyl-phenylamino)-3-chloro-phenoxy]-6-methoxy-quinolin-7-yloxy}-ethyl)-piperidin-4-yl]-methanol], the IC50 amounted to 0.37 µM.

In the case of `COc1cc2c(Oc3ccc(NC(=O)NCCC(C)(C)C)c(F)c3)ccnc2cc1OCCCN1CCC(CCO)CC1` [Compound 304, 1-(3,3-Dimethyl-butyl)-3-[2-fluoro-4-(7-{3-[4-(2-hydroxy-ethyl)-piperidin-1-yl]-propoxy}-6-methoxy-quinolin-4-yloxy)-phenyl]-urea], the IC50 came to 0.0312 µM.

With `COc1cc2nccc(Oc3ccc(Nc4ccc(C(C)(C)C)cc4)cc3)c2cc1OCCNCCO` [Compound 356, 2-(2-{4-[4-(4-Tert-butyl-phenylamino)-phenoxy]-7-methoxy-quinolin-6-yloxy}-ethylamino)-ethanol], the IC50 stood at 0.347 µM.

As to `COc1cc2c(Oc3ccc(Nc4ccc(C(C)(C)C)cc4)c(Cl)c3)ccnc2cc1OCCN1CCC(CCO)CC1` [Compound 293, 2-[1-(2-{4-[4-(4-Tert-butyl-phenylamino)-3-chloro-phenoxy]-6-methoxy-quinolin-7-yloxy}-ethyl)-piperidin-4-yl]-ethanol], the IC50 worked out at 2.36 µM.

With `COc1cc2c(Oc3ccc(NC(=O)NCCC(C)(C)C)cc3)ccnc2cc1OCCN1CCC(c2ccccc2)CC1` [Compound 121, 1-(3,3-Dimethyl-butyl)-3-(4-{6-methoxy-7-[2-(4-phenyl-piperidin-1-yl)-ethoxy]-quinolin-4-yloxy}-phenyl)-urea], the IC50 was found to be 0.088 µM.

Consider `COc1cc2c(Oc3ccc(NC(=O)NCCC(C)(C)C)cc3)ccnc2cc1OCCCN1CCN(C)CC1` [Compound 156, 1-(3,3-Dimethyl-butyl)-3-(4-{6-methoxy-7-[3-(4-methyl-piperazin-1-yl)-propoxy]-quinolin-4-yloxy}-phenyl)-urea hydrochloride], for which the IC50 turned out to be 0.0191 µM.

In the case of `COc1cc2c(Oc3ccc(Nc4ccc(C(C)(C)C)cc4)cc3)ccnc2cc1OCC(O)CN1CCCCCC1` (stereo not shown) [Compound 63, 1-Azepan-1-yl-3-{4-[4-(4-tert-butylphenylamino)phenoxy]-6-methoxyquinolin-7-yloxy}propan-2-ol], the IC50 stood at 0.247 µM.

Take `COc1cc2c(Oc3ccc(NC(=O)NCCC(C)(C)C)c(F)c3)ccnc2cc1OCCN1C(C)(C)CCCC1(C)C` [Compound 131, 1-(3,3-Dimethyl-butyl)-3-(2-fluoro-4-{6-methoxy-7-[2-(2,2,6,6-tetramethyl-piperidin-1-yl)-ethoxy]-quinolin-4-yloxy}-phenyl)-urea]: the IC50 turned out to be 0.161 µM.

Take `COc1cc2nccc(Oc3ccc(Nc4ccc(C(C)(C)C)cc4)cc3)c2cc1OCCN1CCOCC1` [Compound 212, (4-Tert-butyl-phenyl)-{4-[7-methoxy-6-(2-morpholin-4-yl-ethoxy)-quinolin-4-yloxy]-phenyl}-amine]: the IC50 is 0.137 µM.

As for `COc1cc2c(Oc3ccc(NC(=O)NCCC(C)(C)C)cc3Cl)ccnc2cc1OCCCN1CCOCC1` [Compound 318, 1-{3-Chloro-4-[6-methoxy-7-(3-morpholin-4-yl-propoxy)-quinolin-4-yloxy]-phenyl}-3-(3,3-dimethyl-butyl)-urea], the IC50 turned out to be 0.0187 µM.
